The values that follow are results of earlier work, collected in patent US20090053769A1, “HETEROLOGOUS PRODUCTION OF NATURAL PRODUCTS IN BACTERIA” (University of Southern California, priority 2007, published 2009).

Positions of bridges follow the written chain, without caps; N, C: chain ends. Non-standard residues stand in square brackets, D forms with d. Residues, ends and D or L forms follow the SMILES beside them. Chains are numbered I, II in the order given. *: point of attachment. Quinoxaline2carbonyl = O=C(c1cnc2ccccc2n1)*; NMeV = CN[CH](C(=O)O)C(C)C; NMeC = CN[CH](CS)C(=O)O

For this data set the following is noted: general statement on antibacterial, anticancer and antiviral activities, reference 24.

As for `CS[C@H]1SC[C@H]2C(=O)N(C)[C@@H](C(C)C)C(=O)OC[C@@H](NC(=O)c3cnc4ccccc4n3)C(=O)N[C@@H](C)C(=O)N(C)[C@@H]1C(=O)N(C)[C@@H](C(C)C)C(=O)OC[C@@H](NC(=O)c1cnc3ccccc3n1)C(=O)N[C@@H](C)C(=O)N2C` [compound 1, echinomycin], the potency result is “nanomolar potency”. For the compound `CC1NC(=O)C(NC(=O)c2cnc3ccccc3n2)COC(=O)C(C(C)C)N(C)C(=O)C2CSSCC(C(=O)N(C)C(C(C)C)C(=O)OCC(NC(=O)c3cnc4ccccc4n3)C(=O)NC(C)C(=O)N2C)N(C)C1=O` (centres unmarked) [compound 2, triostin A] (I: Quinoxaline2carbonyl-SA[NMeC][NMeV] / II: Quinoxaline2carbonyl-SA[NMeC][NMeV]; ester I:1-II:C, I:C-II:1; disulfide I:3-II:3; configuration not given here), the potency entry was “nanomolar potency”.
